Data set [1] can be described thus: Vinyl ether homopolymerization PDSC with and without EDMAB (Table 2). The text has this:
For the experiments reported in Table 2, the photopolymerization of various vinyl ethers with and without the use of an electron donor to promote the reaction are reported. Data showing runs where EDMAB was used to promote the reaction are shown in parentheses after the numbers corresponding to runs without EDMAB.

Turning to hexanediol divinyl ether [HDDVE], the Rate Constant k in data set [1] (with EDMAB) turned out to be 15.5 min⁻¹; in data set [1] (without EDMAB), 1.4 min⁻¹.
The corresponding values for `C=COCCOCCOC=C` [DEGDVE, di(ethylene glycol)divinyl ether] are 1.4 min⁻¹ and 1.3 min⁻¹.
The melting point is the temperature of the solid-liquid transition. `CCC(=O)OCC1(CC)COC2(OC1)OCC(CC)(COC(=O)CC)CO2` (stereo not shown) [DEDPM, 3,9-Diethyl-3,9-dipropionyloxymethyl-1,5,7,11-tetraoxaspiro[5.5]undecane] yielded a melting point of 68.1 °C.
For the compound `C=COCC1CCC(COC=C)CC1` (stereo not shown) [CHDMDVE, 1,4-cyclohexanedimethanol divinyl ether], the Rate Constant k stood at 2.8 min⁻¹ in data set [1] (with EDMAB) and 0.5 min⁻¹ in data set [1] (without EDMAB).
Consider `C=COCCOC=C` [EGDVE, ethylene glycol divinyl ether], for which the values for the Rate Constant k in data set [1] (with EDMAB) and in data set [1] (without EDMAB) were 10.6 min⁻¹ and 3.6 min⁻¹, respectively.
The corresponding values for `C=COCCCCO` [BDVE, butanediol vinyl ether] are 3.6 min⁻¹ and 1.1 min⁻¹.
The corresponding values for `C=COCC1CO1` (stereo not shown) [GVE, glycidyl vinyl ether] are 0.8 min⁻¹ and 1.1 min⁻¹.
Compound `FC(F)(F)C1CCOC2(OCCC(C(F)(F)F)O2)O1` (stereo not shown) [DTFM, 2,8-Ditrifluoromethyl-1,5,7,11-tetraoxaspiro[5.5]undecane] came in with a melting point of 122.4 °C.
Take `C=COCCOCCOCCOC=C` [TEGDVE, tri(ethylene glycol)divinyl ether]: the values for the Rate Constant k in data set [1] (with EDMAB) and in data set [1] (without EDMAB) were 11.1 min⁻¹ and 2.1 min⁻¹, respectively.
